Read-outs that look alike come from different tables or passages of the source.
Test system: Sprague-Dawley rats
Assay: Clinical chemistry
Format: in vivo, Rattus norvegicus
Design: key to Cholesterol, Dose response / Triglyserides, Dose response / Glucose, Dose response / Albumin, Dose response / K, Dose response / Total bilirubin, Dose response: D: significant dose response (for results, see Table 2); T: significant trend
Details: for CED, Glucose / CED, Potassium / CED-L, Glucose / CED-L, Potassium / CED, Alkaline phosphatase / CED, Chlolesterol / CED, Total Bilirubin / CED-L, Alkaline phosphatase / CED-L, Chlolesterol / CED-L, Total Bilirubin / CED, Albumin / CED-L, Albumin / CED, Total protein / CED, Triglycerides / CED-L, Total protein / CED-L, Triglycerides: adipose tissue concentration based; for Emax: Rattus norvegicus
Procedure: Spectrophotometric methods were used for the determination of serum total calcium, cholesterol, creatinine, glucose, triglycerides and urea. Serum sodium, potassium and chloride concentrations were measured directly by ion selective electrodes. The analyses were performed by a clinical chemistry analyzer (Konelab 30i, ThermoFisher Scientific, Vantaa, Finland). Plasma lactate dehydrogenase (LD) activity was measured according to the recommendations of the International Federation of Clinical Chemistry (IFCC 1994/I) using Konelab 60i clinical chemistry analyzer. Methods and results for liver related parameters (serum alanine aminotransferase [ALT] activity, alkaline phosphatase [ALP] activity, albumin, total protein and total bilirubin are reported separately.
Data were also analyzed using the BMD method, which is based on dose-response modeling of the full data set using a nested family of exponential and Hill models. The analyses were done on data of males and females combined, using sex as a covariate. […] In that case, different Critical Effect Doses (CEDs) and CEDs at the lowest bound of the confidence interval (CED-L) were generated for each sex. If no difference between sexes is detected, a CED and CED-Ls for the combined data is generated. However, this was also done if the curve fits are close, and separate analyses for males and females were then performed manually. CEDs and CED-Ls were calculated at the predefined Critical Effect Size (CES) of 5% (EFSA standard) or 10%.

[1] = females, total dose 0-1700 mg/kg bw
[2] = females, total dose 10 mg/kg bw
[3] = females, total dose 30 mg/kg bw
[4] = females, total dose 100 mg/kg bw
[5] = females, total dose 300 mg/kg bw
[6] = females, total dose 1000 mg/kg bw
[7] = females, total dose 1700 mg/kg bw

Clc1cc(Cl)c(-c2cc(Cl)c(Cl)c(Cl)c2Cl)cc1Cl [PCB 180, 2,2′,3′,4,4′,5,5′-heptachlorobiphenyl]
CED, Glucose (F, CES 5%, model E2): 4450 µg/g lipid
CED, Potassium (F, CES 5%, model E2): 7900 µg/g lipid
CED-L, Glucose (F, CES 5%, model E2): 2648 µg/g lipid
CED-L, Potassium (F, CES 5%, model E2): 5086 µg/g lipid
CED, Alkaline phosphatase (F, CES 5%, model E4): 308 µg/g lipid
CED, Chlolesterol (F, CES 5%, model E4): 640 µg/g lipid
CED, Total Bilirubin (F, CES 5%, model E4): 19.4 µg/g lipid
CED-L, Alkaline phosphatase (F, CES 5%, model E4): 136 µg/g lipid
CED-L, Chlolesterol (F, CES 5%, model E4): 387 µg/g lipid
CED-L, Total Bilirubin (F, CES 5%, model E4): 3.77 µg/g lipid
CED, Glucose (F, CES 10%, model E2): 9140 µg/g lipid
CED, Potassium (F, CES 10%, model E2): 16200 µg/g lipid
CED-L, Glucose (F, CES 10%, model E2): 5440 µg/g lipid
CED-L, Potassium (F, CES 10%, model E2): 10450 µg/g lipid
CED, Alkaline phosphatase (F, CES 10%, model E4): 701 µg/g lipid
CED, Chlolesterol (F, CES 10%, model E4): 1330 µg/g lipid
CED, Total Bilirubin (F, CES 10%, model E4): 48.2 µg/g lipid
CED-L, Alkaline phosphatase (F, CES 10%, model E4): 309 µg/g lipid
CED-L, Chlolesterol (F, CES 10%, model E4): 813 µg/g lipid
CED-L, Total Bilirubin (F, CES 10%, model E4): 8.98 µg/g lipid
CED, Albumin (M, CES 5%, model E2): 6750 µg/g lipid
CED, Alkaline phosphatase (M, CES 5%, model E2): 2300 µg/g lipid
CED, Glucose (M, CES 5%, model E2): 866 µg/g lipid
CED-L, Albumin (M, CES 5%, model E2): 4696 µg/g lipid
CED-L, Alkaline phosphatase (M, CES 5%, model E2): 1393 µg/g lipid
CED-L, Glucose (M, CES 5%, model E2): 632 µg/g lipid
CED, Chlolesterol (M, CES 5%, model E4): 177 µg/g lipid
CED, Total protein (M, CES 5%, model E4): 1080 µg/g lipid
CED, Triglycerides (M, CES 5%, model E4): 12.5 µg/g lipid
CED-L, Chlolesterol (M, CES 5%, model E4): 91.4 µg/g lipid
CED-L, Total protein (M, CES 5%, model E4): 575 µg/g lipid
CED-L, Triglycerides (M, CES 5%, model E4): 7.26 µg/g lipid
CED, Albumin (M, CES 10%, model E2): 13200 µg/g lipid
CED, Alkaline phosphatase (M, CES 10%, model E2): 4730 µg/g lipid
CED, Glucose (M, CES 10%, model E2): 1780 µg/g lipid
CED-L, Albumin (M, CES 10%, model E2): 9174 µg/g lipid
CED-L, Alkaline phosphatase (M, CES 10%, model E2): 2861 µg/g lipid
CED-L, Glucose (M, CES 10%, model E2): 1297 µg/g lipid
CED, Chlolesterol (M, CES 10%, model E4): 365 µg/g lipid
CED, Total protein (M, CES 10%, model E4): 2970 µg/g lipid
CED, Triglycerides (M, CES 10%, model E4): 26.2 µg/g lipid
CED-L, Chlolesterol (M, CES 10%, model E4): 189 µg/g lipid
CED-L, Total protein (M, CES 10%, model E4): 1629 µg/g lipid
CED-L, Triglycerides (M, CES 10%, model E4): 15.2 µg/g lipid
Emax (F, model E2, controls vs high dose according to the fitted model, read-out: Maximum response, Glucose): -12.2%
Emax (F, model E2, controls vs high dose according to the fitted model, read-out: Maximum response, Potassium): -7.07%
Emax (F, model E4, controls vs high dose according to the fitted model, read-out: Maximum response, Alkaline phosphatase): -25.7%
Emax (F, model E4, controls vs high dose according to the fitted model, read-out: Maximum response, Chlolesterol): 53.8%
Emax (F, model E4, controls vs high dose according to the fitted model, read-out: Maximum response, Total Bilirubin): -18.2%
Emax (females, controls vs high dose, fitted model, read-out: Alkaline phosphatase, Maximum response): -25.7%
Emax (females, controls vs high dose, fitted model, read-out: Chlolesterol, Maximum response): 54.1%
Emax (females, controls vs high dose, fitted model, read-out: Glucose, Maximum response): -12.1%
Emax (females, controls vs high dose, fitted model, read-out: Potassium, Maximum response): -7%
Emax (females, controls vs high dose, fitted model, read-out: Total Bilirubin, Maximum response): -17.9%
Emax (males, controls vs high dose, fitted model, read-out: Albumin, Maximum response): 5.5%
Emax (males, controls vs high dose, fitted model, read-out: Alkaline phosphatase, Maximum response): -14.9%
Emax (males, controls vs high dose, fitted model, read-out: Chlolesterol, Maximum response): 80.8%
Emax (males, controls vs high dose, fitted model, read-out: Glucose, Maximum response): -35.6%
Emax (males, controls vs high dose, fitted model, read-out: Total protein, Maximum response): 14.1%
Emax (males, controls vs high dose, fitted model, read-out: Triglycerides, Maximum response): -62.2%
Emax (model E2, controls vs high dose according to the fitted model, read-out: Maximum response, Albumin): 5.49%
Emax (model E2, controls vs high dose according to the fitted model, read-out: Maximum response, Alkaline phosphatase): -15.4%
Emax (model E2, controls vs high dose according to the fitted model, read-out: Maximum response, Glucose): -35.4%
Emax (model E4, controls vs high dose according to the fitted model, read-out: Maximum response, Chlolesterol): 81.7%
Emax (model E4, controls vs high dose according to the fitted model, read-out: Maximum response, Total protein): 14.2%
Emax (model E4, controls vs high dose according to the fitted model, read-out: Maximum response, Triglycerides): -62.5%
Cholesterol, Dose response [1]: T
Glucose, Dose response [1]: T
K, Dose response [1]: T
Total bilirubin, Dose response [1]: T
Albumin (females, total dose 3 mg/kg bw): 33.8 g/L
Cholesterol (females, total dose 3 mg/kg bw): 3.11 mmol/L
Cl (females, total dose 3 mg/kg bw): 97.1 mmol/L
Creatinine (females, total dose 3 mg/kg bw): 51.7 µmol/L
Glucose (females, total dose 3 mg/kg bw): 13.7 mmol/L
K (females, total dose 3 mg/kg bw): 5.59 mmol/L
Na (females, total dose 3 mg/kg bw): 142.1 mmol/L
Total Ca (females, total dose 3 mg/kg bw): 3.40 mmol/L
Total bilirubin (females, total dose 3 mg/kg bw): 1.59 µmol/L
Triglyserides (females, total dose 3 mg/kg bw): 0.91 mmol/L
Urea (females, total dose 3 mg/kg bw): 9.9 mmol/L
Albumin [2]: 33.9 g/L
Cholesterol [2]: 3.35 mmol/L
Cl [2]: 97.2 mmol/L
Creatinine [2]: 53.8 µmol/L
Glucose [2]: 14.4 mmol/L
K [2]: 5.70 mmol/L
Na [2]: 143.6 mmol/L
Total Ca [2]: 3.42 mmol/L
Total bilirubin [2]: 1.66 µmol/L
Triglyserides [2]: 0.85 mmol/L
Urea [2]: 9.4 mmol/L
Albumin [3]: 32.7 g/L
Cholesterol [3]: 3.05 mmol/L
Cl [3]: 97.3 mmol/L
Creatinine [3]: 48.6 µmol/L
Glucose [3]: 13.6 mmol/L
K [3]: 5.55 mmol/L
Na [3]: 142.7 mmol/L
Total Ca [3]: 3.46 mmol/L
Total bilirubin [3]: 1.40 µmol/L
Triglyserides [3]: 1.19 mmol/L
Urea [3]: 9.5 mmol/L
Albumin [4]: 33.1 g/L
Cholesterol [4]: 3.54 mmol/L
Cl [4]: 97.0 mmol/L
Creatinine [4]: 51.3 µmol/L
Glucose [4]: 13.8 mmol/L
K [4]: 5.75 mmol/L
Na [4]: 142.5 mmol/L
Total Ca [4]: 3.44 mmol/L
Total bilirubin [4]: 1.56 µmol/L
Triglyserides [4]: 0.89 mmol/L
Urea [4]: 8.6 mmol/L
Albumin [5]: 33.5 g/L
Cholesterol [5]: 3.52 mmol/L
Cl [5]: 96.8 mmol/L
Creatinine [5]: 47.8 µmol/L
Glucose [5]: 14.0 mmol/L
K [5]: 5.54 mmol/L
Na [5]: 142.6 mmol/L
Total Ca [5]: 3.56 mmol/L
Total bilirubin [5]: 1.40 µmol/L
Triglyserides [5]: 1.12 mmol/L
Urea [5]: 10.1 mmol/L
Albumin [6]: 33.0 g/L
Cholesterol [6]: 4.16 mmol/L
Cl [6]: 97.2 mmol/L
Creatinine [6]: 51.9 µmol/L
Glucose [6]: 12.6 mmol/L
K [6]: 5.43 mmol/L
Na [6]: 142.7 mmol/L
Total Ca [6]: 3.40 mmol/L
Total bilirubin [6]: 1.43 µmol/L
Triglyserides [6]: 0.89 mmol/L
Urea [6]: 9.3 mmol/L
Albumin [7]: 33.3 g/L
Cholesterol [7]: 4.94 mmol/L
Cl [7]: 97.7 mmol/L
